Assays:
PI 3-kinase alpha = PI 3-kinase alpha (Homo sapiens (Human), UniProt P42336); experiment: Kinase Glo Luminescent Kinase Assay (Assay A); type: biochemical; conditions: 1 μM ATP, read-out: Assay A PI3Kα IC50
From the text: Kinase Glo Luminescent Kinase Assay (Kglo) for PI 3-Kinase Alpha (A), Pb 3-Kinase Beta (B), Vps34 (C), PI 4-Kinase Beta (D)
The luminescence-based ATP detection reagent KinaseGlo was obtained from Promega, (Cat. No. V6714, Lot No. 236161) through Catalys, Wallisellen, Switzerland. L-alpha-phosphatidylinositol (PI, liver, bovine) was obtained from Avanti Polar Lipid (Cat. No. 840042C, Lot#LPI-274), Phosphatidylinositol-4,5-bisphosphate (PIP(4,5)2) was also obtained from Avanti Polar Lipid (Cat. No. 840046X). L-α-Phosphatidylserine (PS) was obtained from Avanti Polar Lipid (Cat. No. 840032C), n-Octylglucoside from Avanti Polar Lipid (Cat. No. 10634425001). Luminescence is a well established readout to determine ATP concentrations and can thus be used to follow the activity of many kinases regardless of their substrate. The Kinase Glo Luminescent Kinase Assay (Promega, Madison/WI, USA) is a homogeneous HTS method of measuring kinase activity by quantifying the amount of ATP remaining in solution following a kinase reaction.
50 nL of compound dilutions were dispensed onto black 384-well low volume Non Binding Styrene (NBS) plates (Costar Cat. No. NBS#3676). L-α-phosphatidylinositol (PI), provided as 10 mg/ml solution in methanol, was transferred into a glass tube and dried under a nitrogen beam. It was then resuspended in 3% OctylGlucoside (1-O-n-octyl-beta-D-glucopyranoside) by vortexing and stored at 4° C. 5 μL of a mix of PI/OctylGlucoside with the PI 3-kinase alpha and PI 3-kinase beta subtypes, or Vps34 or PI 4-kinase beta were added. Kinase reactions were started by the addition of 5 μl of an ATP-mix containing in a final volume 10 μL 10 mM TRIS-HCl pH 7.5, 3 mM MgCl2, 50 mM NaCl, 0.05% CHAPS, 1 mM DTT and 1 μM ATP at room temperature. Reactions were stopped with 10 μl of KinaseGlo and plates were read 10 mins later in a Synergy2 reader using an integration time of 0.1 seconds per well. 2.5 μM of NVP-BGT226 (1-(3-(trifluoromethyl)-4-(piperazin-1-yl)phenyl)-8-(6-methoxypyridin-3-yl)-3-methyl-1H-imidazo[4,5-c]quinolin-2(3H)-one) was added to the assay plates to generate the 100% inhibition of the kinase reaction, and the 0% inhibition was given by the solvent vehicle (90% DMSO in water). (1-(3-(trifluoromethyl)-4-(piperazin-1-yl)phenyl)-8-(6-methoxypyridin-3-yl)-3-methyl-1H-imidazo[4,5-c]quinolin-2(3H)-one) was used as a reference compound and included in all assay plates in the form of 16 dilution points in duplicate.
IC50 values of the percentage inhibition of each compound at 8 concentrations (10, 3.0, 1.0, 0.3, 0.1, 0.030, 0.010 and 0.003 μM) n=2 were derived by fitting a sigmoidal dose-response curve to a plot of assay readout over inhibitor concentration as described. All fits were performed with the program XLfit4 (ID Business Solutions, Guildford, UK).

[1] = system: IL-8-induced neutrophil shape change in human whole blood; experiment: Whole blood neutrophil shape change assay (Assay L); type: cell-based; conditions: 2 nM IL-8, neutrophil shape change by flow cytometry, read-out: Assay L WBSC IC50
Experimental: Whole Blood Neutrophil Shape Change Assay (L)
A flow cytometry based method used to measure the inhibition of IL-8 (interleukin-8)-induced neutrophil shape change in human whole blood.
IL-8 was made up to 2 μM stocks in 0.1% bovine serum albumin/PBS and stored at −80° C. On the day IL-8 was diluted in PBS (phosphate buffered saline) 10 minutes before use. IL-8 was used at final concentration of 2 nM and a concentration range from […] to 200 nM for the donor dose response curve.
Assay fixative solution was prepared fresh each day from 10× concentrated CellFIX™ solution diluted 1:10 in sterile distilled water and then 1:4 with PBS. Assay fixative solution was kept on ice prior to use.
A 10× lysis buffer was prepared in advance by dissolving 20.75 g […] and 2.5 g KHCO3 in 250 ml sterile H2O. This 10× lysis buffer was filtered under sterile conditions and stored for up to two weeks at 4° C. On the day a 1× lysis solution was prepared with sterile distilled H2O and kept on ice prior to use.
The test compounds were prepared as 10 mM stock solutions in 100% DMSO and were stored at 4° C. Once in use for an assay 10 mM stock compounds were thawed and stored at RT protected from light. Compound dilutions were prepared fresh on the day. The first series of dilutions in 100% DMSO were done first thing in the morning. Only once blood had been collected and arrived in laboratory was the next set of dilutions into PBS carried out (1:10 PBS, 10% DMSO). This limited the exposure of diluted compound to plastic and made sure the exposure timing was consistent between assays. Compounds were added to the deep 96 well plates at 10× the final desired concentration (with addition of blood final [DMSO]=1%).
Table 3 illustrates the compound dilution series used in human whole blood neutrophil shape change assay.
On the day of running the assay, assay fixative buffer and 1× lysis solutions were prepared and stored on ice. Compound dilutions in 100% DMSO were prepared as described previously. Human whole blood was collected in K2 EDTA Vacutainers. Once blood was in the laboratory, compound dilutions into PBS were carried out as described previously and depicted in Table 1. 10 μl of 10× final compound concentration was added to appropriate wells of a deep 96-well plate except controls where 10 μl of 10% DMSO was added in place of compound, as outlined in the dilution series in Table 1. The outer wells of the deep well assay plate were filled with 1200 μl of sterile distilled H2O in an effort to limit edge effects (rows A1-H1, A1-A12, A12-H12). An IL-8 dose response was determined for each blood donor examined, to monitor the donor response to IL-8. At this step in assay preparation for the IL-8 dose response samples 10 μl of PBS was added to designated wells. In addition the assay window without DMSO was also assessed each day. For such samples at this step in assay preparation 10 μl of PBS was added in the place of 10% DMSO.
80 μl of whole blood was added to compound/10% DMSO/PBS and mixed once gently upon addition. Lids were placed on the 96 well plates and samples were incubated for 15 minutes at 37° C. in a water-bath.
Following the compound pre-incubation 10× final IL-8 was added to appropriate wells (10 μl of 20 nM working stock IL-8, final IL-8 concentration in blood=2 nM) and 10 μl of PBS was added to the un-stimulated controls. 10× final dose response range IL-8 was also added to designated wells (final concentration range on assay plate was 200 nM to 0.0005 nM, 1:5 serial dilution in PBS). The IL-8 and PBS were added to appropriate wells across all assay plates in the same sequence as the blood to compound addition. Once added to all assay plates, samples were mixed quickly once to ensure even distribution of IL-8. Samples were incubated for 5 minutes at 37° C. in a water-bath. Following the incubation sample plates were transferred to ice where 250 μl of chilled Assay Fixative Buffer was added promptly to all wells. […]

PI 3-kinase alpha, sequence (P42336 21-1068): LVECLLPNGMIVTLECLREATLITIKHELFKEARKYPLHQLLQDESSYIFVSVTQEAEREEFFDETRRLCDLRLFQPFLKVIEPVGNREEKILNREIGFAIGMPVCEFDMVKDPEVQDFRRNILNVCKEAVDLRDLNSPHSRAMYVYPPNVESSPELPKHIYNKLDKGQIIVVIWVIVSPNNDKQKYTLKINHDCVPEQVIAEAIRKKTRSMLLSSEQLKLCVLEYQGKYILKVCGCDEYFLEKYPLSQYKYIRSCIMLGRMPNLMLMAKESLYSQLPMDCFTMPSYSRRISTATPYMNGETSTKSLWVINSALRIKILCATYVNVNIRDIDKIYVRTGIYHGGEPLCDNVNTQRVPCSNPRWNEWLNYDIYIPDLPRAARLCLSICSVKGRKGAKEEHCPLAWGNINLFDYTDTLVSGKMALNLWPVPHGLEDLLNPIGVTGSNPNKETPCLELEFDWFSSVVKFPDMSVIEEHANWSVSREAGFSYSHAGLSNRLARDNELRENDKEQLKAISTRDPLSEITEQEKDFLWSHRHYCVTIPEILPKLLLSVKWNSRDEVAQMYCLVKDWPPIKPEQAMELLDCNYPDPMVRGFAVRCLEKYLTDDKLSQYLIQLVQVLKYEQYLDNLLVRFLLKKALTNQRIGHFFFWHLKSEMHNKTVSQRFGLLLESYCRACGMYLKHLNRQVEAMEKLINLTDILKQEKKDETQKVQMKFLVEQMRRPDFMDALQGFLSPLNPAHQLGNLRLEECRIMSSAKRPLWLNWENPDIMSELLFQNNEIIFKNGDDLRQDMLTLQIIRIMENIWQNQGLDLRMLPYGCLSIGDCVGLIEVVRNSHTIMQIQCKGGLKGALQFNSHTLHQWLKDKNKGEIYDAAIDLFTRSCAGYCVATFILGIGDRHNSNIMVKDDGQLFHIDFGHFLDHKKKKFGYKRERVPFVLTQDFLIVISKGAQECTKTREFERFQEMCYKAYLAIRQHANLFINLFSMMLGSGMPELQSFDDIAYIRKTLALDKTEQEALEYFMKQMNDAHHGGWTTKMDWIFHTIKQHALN

| IC50 (PI 3-kinase alpha) | IC50 [1] | Compound |
| --- | --- | --- |
| 260 nM | 598 nM | Cc1ccc(S(=O)(=O)NCCC(C)(C)O)cc1-c1cncc(-c2cnn(CCN3CCOCC3)c2)n1 [Example 9, N-(3-Hydroxy-3-methyl-butyl)-4-methyl-3-{6-[1-(2-morpholin-4-yl-ethyl)-1H-pyrazol-4-yl]-pyrazin-2-yl}-benzenesulfonamide] |
| 70 nM | 663 nM | Cc1ccc(S(=O)(=O)NCCC(C)(C)O)cc1-c1cncc(-c2cn(CCN3CCOCC3)nc2C)n1 [Example 10, N-(3-Hydroxy-3-methyl-butyl)-4-methyl-3-{6-[3-methyl-1-(2-morpholin-4-yl-ethyl)-1H-pyrazol-4-yl]-pyrazin-2-yl}-benzenesulfonamide] |
| 400 nM | 752 nM | Cc1ccc(S(=O)(=O)N[C@H]2CC[C@H](O)CC2)cc1-c1cncc(-c2cccnc2)n1 [Example 11, Trans N-(4-Hydroxy-cyclohexyl)-4-methyl-3-(6-pyridin-3-yl-pyrazin-2-yl)-benzenesulfonamide] |

More lines, now with the values behind:

| Compound | IC50 (PI 3-kinase alpha) | IC50 [1] |
| --- | --- | --- |
| Cc1ncc(-c2cncc(-c3cc(S(=O)(=O)NCCCO)ccc3C)n2)s1 [Example 1, N-(3-Hydroxy-propyl)-4-methyl-3-[6-(2-methyl-thiazol-5-yl)-pyrazin-2-yl]-benzenesulfonamide] | 190 nM | 1330 nM |
| Cc1ccc(S(=O)(=O)NCC(C)(C)O)cc1-c1cncc(-c2cn(C)nc2C)n1 [Example 2, 3-[6-(1,3-Dimethyl-1H-pyrazol-4-yl)-pyrazin-2-yl]-N-(2-hydroxy-2-methyl-propyl)-4-methyl-benzenesulfonamide] | 50 nM | 266 nM |
| Cc1ccc(S(=O)(=O)NCCC(C)(C)O)cc1-c1cncc(-c2cn(C)nc2C)n1 [Example 3, 3-[6-(1,3-Dimethyl-1H-pyrazol-4-yl)-pyrazin-2-yl]-N-(3-hydroxy-3-methyl-butyl)-4-methyl-benzenesulfonamide] | 80 nM | 1080 nM |
| Cc1ccc(S(=O)(=O)NCC2(C)COC2)cc1-c1cncc(-c2cn(C)nc2C)n1 [Example 4, Trans 3-[6-(1,3-Dimethyl-1H-pyrazol-4-yl)-pyrazin-2-yl]-4-methyl-N-(3-methyl-oxetan-3-ylmethyl)-benzenesulfonamide] | 60 nM | 548 nM |
| Cc1ncc(-c2cncc(-c3cc(S(=O)(=O)N[C@H]4CC[C@H](O)CC4)ccc3C)n2)s1 [Example 5, Trans N-(4-Hydroxycyclohexyl)-4-methyl-3-(6-(2-methylthiazol-5-yl)pyrazin-2-yl)benzenesulfonamide] | 150 nM | 179 nM |
| Cc1ccc(S(=O)(=O)NCC(C)(C)CO)cc1-c1cncc(-c2cn(C)nc2C)n1 [Example 8, 3-[6-(1,3-Dimethyl-1H-pyrazol-4-yl)-pyrazin-2-yl]-N-(3-hydroxy-2,2-dimethyl-propyl)-4-methyl-benzenesulfonamide] | 60 nM | 625 nM |

From patent US9862711B2, “Pyrazine derivatives as phosphatidylinositol 3-kinase inhibitors” (NOVARTIS AG, priority 2014, dated 2018)
